Tests used:
WDR5 [1] = molecular target: T1, WDR5 (Homo sapiens, UniProt P61964); conditions: for binding affinity for WDR5 (in words): FPA
WDR5 [2] = molecular target: T1, WDR5; assay: Thermal shift by differential scanning fluorimetry; assay type: binding; conditions: DSF; 10 μM, or ten-point dilution for 7k
WDR5 [3] = molecular target: T1, WDR5; assay: biochemical
WDR5-RBBP5 = WDR5-RBBP5 (Homo sapiens, UniProt P61964); assay type: biochemical; conditions: HEK293 lysates; lowest concentration tested (6.25 μM)
WDR5-c-MYC = WDR5-c-MYC (Homo sapiens, UniProt P61964); assay type: biochemical; conditions: HEK293 lysates; lowest concentration tested (6.25 μM)

Row | SMILES | binding affinity for WDR5 (in words) (WDR5 [1]) | WDR5 stabilization by thermal shift (in words) (WDR5 [2]) | also measured
1 | COc1ccc(Br)cc1S(=O)(=O)Nc1cc(Cl)cc(S(C)(=O)=O)c1O [Compound 8, 5-Bromo-N-(5-chloro-2-hydroxy-3-(methylsulfonyl)phenyl)-2-methoxybenzenesulfonamide] | sub-micromolar affinity |  | 
2 | O=S(=O)(Nc1cc(S(F)(F)(F)(F)F)ccc1O)c1cc(Br)ccc1O [Compound 5k, 5-Bromo-2-hydroxy-N-(2-hydroxy-5-(pentafluorosulfanyl)phenyl)benzenesulfonamide] |  |  | improved binding affinity in comparison to 5l (WDR5 [1]; FPA Kd ratio vs trifluoromethyl cyclopropane 5l): ~ 5 fold
3 | O=C(O)c1cc(S(F)(F)(F)(F)F)cc(NS(=O)(=O)c2cc(Br)cc(Cl)c2O)c1O [Compound 6o, 3-((5-Bromo-3-chloro-2-hydroxyphenyl)sulfonamido)-2-hydroxy-5-(pentafluorosulfanyl)benzoic acid] |  | largest ΔTm | 
4 | CNC(=O)c1cc(C2(C#N)CCC2)cc(NS(=O)(=O)c2cc(Br)cc(Cl)c2O)c1O [Compound 7k, 3-((5-Bromo-3-chloro-2-hydroxyphenyl)sulfonamido)-5-(1-cyanocyclobutyl)-2-hydroxy-N-methylbenzamide] |  | concentration-dependent response | 
5 | CNC(=O)c1cc(C2(C#N)CCC2)cc(NS(=O)(=O)c2cc(Br)ccc2OC)c1O [Compound 9, 3-((5-Bromo-2-methoxyphenyl)sulfonamido)-5-(1-cyanocyclobutyl)-2-hydroxy-N-methylbenzamide] | sub-micromolar affinity |  | 
6 | N#CC1(c2cc(NS(=O)(=O)c3cc(Br)cc(Cl)c3O)c(O)c(C(=O)O)c2)CCCCC1 [Compound 6t, 3-((5-Bromo-3-chloro-2-hydroxyphenyl)sulfonamido)-5-(1-cyanocyclohexyl)-2-hydroxybenzoic acid] |  | largest ΔTm | 
7 | COc1ccccc1S(=O)(=O)Nc1cc(Cl)ccc1O [Compound 5a, N-(5-Chloro-2-hydroxyphenyl)-2-methoxybenzenesulfonamide] | all binding affinity for WDR5 is lost |  | 
8 | N#CC1(c2cc(NS(=O)(=O)c3cc(Br)ccc3O)c(O)c(C(=O)Nc3nc[nH]n3)c2)CCC1 [Compound 7n, 3-((5-Bromo-2-hydroxyphenyl)sulfonamido)-5-(1-cyanocyclobutyl)-2-hydroxy-N-(1H-1,2,4-triazol-3-yl)benzamide] |  |  | Kd (WDR5 [3]): 46 ± 14 nM
9 | N#CC1(c2cc(NS(=O)(=O)c3cc(Br)cc(Cl)c3O)c(O)c(C(=O)O)c2)CCC1 [Compound 6r, 3-((5-Bromo-3-chloro-2-hydroxyphenyl)sulfonamido)-5-(1-cyanocyclobutyl)-2-hydroxybenzoic acid] |  | largest ΔTm | disruption of the association WDR5-RBBP5 at the lowest concentration tested (WDR5-RBBP5): marked disruption; disruption of the association WDR5-c-MYC at the lowest concentration tested (WDR5-c-MYC): marked disruption
10 | COCCNC(=O)c1cc(C2(C#N)CCC2)cc(NS(=O)(=O)c2cc(Br)ccc2O)c1O [Compound 7o, 3-((5-Bromo-2-hydroxyphenyl)sulfonamido)-5-(1-cyanocyclobutyl)-2-hydroxy-N-(2-methoxyethyl)benzamide] |  |  | Kd (WDR5 [3]): 757 ± 17 nM
